From US5563125A, “5'-deoxy-5'-(substituted)alkylthioribose compounds and their pharmaceutical compositions” (priority 1992, dated 1996) come the findings set out here.

In general, IC50 refers to the concentration that gives 50% inhibition. As usually defined, the Ki is a measure of affinity in units of concentration, obtained from inhibition or displacement. Low values mean a stronger hold on the target, high ones a looser hold on the target.

Assay [1] deals with T. b. brucei procyclic trypanosomes (Lab 110 EATRO strain). Kind of assay: In vitro antitrypanosomal activity, procyclic trypanosomes in T2 medium. The class given is cell-based, Trypanosoma brucei brucei. Conditions: 3-5 days. How it is done: The antitrypanosomal effects of HETA and other nucleosides were examined in the Lab 110 EATRO strain of T. b. brucei in culture.
Cells were cultured as described in Bacchi et al. Exp. Parasitol. 68, 392, 1989. Cells were then grown in the presence of the compounds for 3-5 days. Drugs were filtered, sterilized and added aseptically. Control cells achieved a maximum density of 1.5-3.5×10^7 /ml. Hemocytometer counts were made daily and the results were expressed as a percent of control growth. IC50 plots were obtained by graphing log (drug) vs. percent growth inhibition.
Trypanocidal Activity of MTA and MTR Analogs
against T. b. brucei procyclic trypanosomes in T2 medium.

The test system of assay [2] is MOLT-4 cells (MTA phosphorylase-containing). Kind of assay: Growth inhibition of MOLT-4 cells. Type of assay: cell-based, human. Conditions: MOLT-4, 96 h. How it is done: (§1) L1210, L5178Y and MOLT-4 cell lines were grown in RPMI 1640 and 10% Nu Serum (Collaborative Research Inc., Lexington, Mass.) and CCRF-CEM cells were grown in 10% Horse Serum (Gibco Laboratories, Grand Island, N.Y.) and maintained as previously described for suspension cultures by Pera et al. in Cancer Res. 46, 1148, 1986. Cell cultures (0.3×10^5 cells/ml) were treated with each compound at 0.1 to 1000 μM to determine the concentration that inhibited growth by 50% (IC50) at 48 hr for the L1210 and L5178Y cells and at 96 hr for the CCRF-CEM and MOLT-4 cells. The incubation times allowed approximately 4 cell doublings in each cell line. All compounds were freshly prepared prior to treatment by dissolving in DMSO and diluting in serum-free media. Cells were counted by electron particle counting (Model XF' Coulter Counter; Coulter Electronics, Hialeah, Fla.).
(§2) For each compound, the concentrations required to inhibit cell growth by 50% (IC50 values) are shown in Table 7 for two murine leukemic cell lines, L1210 and L5178Y [MTA phosphorylase-deficient and MTA phosphorylase-containing, respectively] and two human leukemic cell lines, CCRF-CEM and MOLT-4 [MTA phosphorylase-deficient and MTA phosphorylase-containing, respectively]. ETA, MFETA, HETA and PTA had lower IC50 values in the L5178Y cells than in the L1210 cells. […] This differential is consistent with the possibility that, in L5178Y cells, MFETA is cleaved by MTA phosphorylase to the growth inhibitory metabolite, 5-monofluoroethylthioribose-1-phosphate (MFETR-1-P).

In assay [3] the test system is L5178Y cells (MTA phosphorylase-containing). Kind of assay: Growth inhibition of L5178Y cells. Type of assay: cell-based, mouse. Conditions: 48 h. How it is done:
as §1, §2

For assay [4], the system named is L1210 cells (MTA phosphorylase-deficient). The assay can be described thus: Growth inhibition of L1210 cells. Conditions: L1210, 48 h. Type of assay: cell-based, mouse. Here is the method:
as §1, §2

Assay [5] addresses T1, Mouse Liver MTA Phosphorylase (Mus musculus, UniProt Q9CQ65).
T1 sequence (Q9CQ65 1-283): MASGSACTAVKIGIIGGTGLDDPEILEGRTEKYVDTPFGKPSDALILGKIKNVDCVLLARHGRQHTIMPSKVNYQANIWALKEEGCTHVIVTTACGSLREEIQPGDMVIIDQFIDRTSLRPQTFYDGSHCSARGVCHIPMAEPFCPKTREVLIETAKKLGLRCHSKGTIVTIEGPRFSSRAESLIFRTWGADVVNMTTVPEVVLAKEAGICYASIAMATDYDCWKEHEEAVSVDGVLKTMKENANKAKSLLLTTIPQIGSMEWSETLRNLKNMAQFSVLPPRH
The assay can be described thus: Mouse liver MTA phosphorylase substrate/inhibitor assay. The class given is biochemical. Conditions: for Substrate (% Control): substrate activity relative to MTA. How it is done: ^a MTA phosphorylase activity was assayed as described in Sufrin et

The target of assay [6] is T2, T. b. brucei MTA phosphorylase (Trypanosoma brucei, UniProt Q57XS4).
T2 construct: MTA or analogs as substrates
T2 sequence (Q57XS4 entry or part of it): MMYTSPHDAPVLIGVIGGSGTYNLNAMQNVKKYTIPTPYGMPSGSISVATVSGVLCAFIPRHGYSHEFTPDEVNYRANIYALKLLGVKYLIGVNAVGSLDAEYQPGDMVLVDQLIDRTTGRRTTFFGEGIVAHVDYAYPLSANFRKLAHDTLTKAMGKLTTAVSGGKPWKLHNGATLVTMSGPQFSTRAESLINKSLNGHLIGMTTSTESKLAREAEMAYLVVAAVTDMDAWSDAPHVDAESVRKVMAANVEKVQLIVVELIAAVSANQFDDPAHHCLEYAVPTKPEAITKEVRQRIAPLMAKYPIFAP
The assay can be described thus: T. b. brucei MTA phosphorylase substrate assay. The conditions noted are these: relative to MTA. Type of assay: biochemical. How it is done:
^a MTA phosphorylase was assayed according to Ghoda et al., using 200
μM MTA (saturating) or analogs as substrates. Specific activities of
the dialyzed enzyme preparations were with 50 mM PO4, 104.97 n
moles/mg protein/h; without PO4, 28.27 n moles/mg protein/h. Results
are expressed as percent activity compared to as substrate with and
without PO4, respectively.

The subject of assay [7] is CCRF-CEM cells (MTA phosphorylase-deficient). The assay can be described thus: Growth inhibition of CCRF-CEM cells. The class given is cell-based, human. The conditions noted are these: 96 h. Here is the method:
as §1, §2

The test system of another assay is P. falciparum. Kind of assay: In vitro antimalarial activity of HETA. Type of assay: cell-based, Plasmodium falciparum. The conditions noted are these: P. falciparum in vitro screen.
The subject of assay [8] is T. b. brucei LAB 110 EATRO. Kind of assay: In vivo antitrypanosomal activity, LAB EATRO mouse infection model. The conditions noted are these: 7 days, miniosmotic pump. How it is done:
^a Animals were treated with surgically implanted miniosmotic pumps
loaded as per manufacturers instructions with MTA, HETA or MFETA suspende

Turning to `N=C(N)c1ccc(N=NNc2ccc(C(=N)N)cc2)cc1` [BERENIL], half-maximal inhibition in [1] (Trypanosoma brucei) (IC50) required 0.2 µM.
With `Nc1ncnc2c1ncn2[C@@H]1O[C@H](CSCCBr)[C@@H](O)[C@H]1O` [BETA, 5'-deoxy-5'-(bromoethylthio)adenosine], the IC50 is 25 ± 10 µM in [2]; 150 µM in assay [3]; 150 µM in assay [4]; 0.5 µM in assay [1]; 250 ± 50 µM in assay [7]. The molecule further had a Ki in assay [5] of 6.5 µM. Moreover, the “Substrate (% Control)” value in assay [5] was 38 % Control. The “Percent Control Activity” value in [6] (+50 mM PO4, 200 μM substrate) stood at 88.8%; in assay [6] (No PO4, 200 μM substrate), 120%.
As for `CCSC[C@H]1O[C@@H](n2cnc3c(N)ncnc32)[C@H](O)[C@@H]1O` [ETA, reference compound], the IC50 in assay [2] (Homo sapiens) was determined as 20 ± 10 µM; in [3] (Mus musculus), 250 ± 100 µM; in assay [4] (Mus musculus), 800 ± 100 µM; in [1] (Trypanosoma brucei), 138 µM; in assay [7] (Homo sapiens), 200 ± 100 µM. Besides, the “growth of the microorganism inhibited in an in vitro screen” value with P. falciparum was “inhibited”. Besides, the “Substrate (% Control)” value in assay [5] came to 95 % Control. For the same molecule, the “Percent Control Activity” value is recorded as 76.2% in assay [6] (+50 mM PO4, 200 μM substrate) and 100% in assay [6] (No PO4, 200 μM substrate).
In assay [1] (Trypanosoma brucei), `Nc1ncnc2c1ncn2[C@@H]1O[C@H](CSCCCO)[C@@H](O)[C@H]1O` [HPTA] registered an IC50 of 170 µM. Further, the “Percent Control Activity” value in [6] (+50 mM PO4, 200 μM substrate) turned out to be 72.5%; in assay [6] (No PO4, 200 μM substrate), 101.8%.
Consider `Nc1ncnc2c1ncn2[C@@H]1O[C@H](CSCCCF)[C@@H](O)[C@H]1O` [MFPTA, reference compound], for which the IC50 was found to be 25 µM in assay [2] (Homo sapiens); 600 µM in assay [3] (Mus musculus); 600 µM in assay [4] (Mus musculus); 120 µM in assay [1] (Trypanosoma brucei); 160 µM in assay [7] (Homo sapiens). Moreover, in assay [5], the “Substrate (% Control)” value came out at 66 % Control. Also, the “Percent Control Activity” value stood at 47.5% in [6] (+50 mM PO4, 200 μM substrate) and 116.4% in assay [6] (No PO4, 200 μM substrate).
Consider `CSC[C@H]1O[C@@H](n2cnc3c(N)ncnc32)[C@H](O)[C@@H]1O` [MTA, 5'-deoxy-5'-methylthioadenosine, reference compound], for which the IC50 in assay [2] (Homo sapiens) was 11 ± 7 µM; in assay [3] (Mus musculus), 200 ± 45 µM; in assay [4] (Mus musculus) it was 850 ± 120 µM; in [7] (Homo sapiens) it was 150 ± 60 µM. Besides, the “Substrate (% Control)” value in [5] came to 100 % Control. Also, the “% Cured” value in assay [8] (25 mg/kg/day), in assay [8] (50 mg/kg/day) and in assay [8] (100 mg/kg/day) was 0% each time. Further, the “MSD (mean survival in days of animals dying of infection)” value in [8] (25 mg/kg/day), in assay [8] (50 mg/kg/day) and in [8] (100 mg/kg/day) was 5.0 days throughout. Moreover, the “Number Cured Total” value in assay [8] (25 mg/kg/day), in [8] (50 mg/kg/day) and in assay [8] (100 mg/kg/day) was 0/5 throughout. The “Percent Control Activity” value in assay [6] (+50 mM PO4, 200 μM substrate) was 100%; in assay [6] (No PO4, 200 μM substrate), 100%.
`N=C(N)c1ccc(OCCCCCOc2ccc(C(=N)N)cc2)cc1` [PENTAMIDINE] gave an IC50 in assay [1] (Trypanosoma brucei) of 0.2 µM.
`CCCSC[C@H]1O[C@@H](n2cnc3c(N)ncnc32)[C@H](O)[C@@H]1O` [PTA, reference compound]: the IC50 is 45 µM in assay [2] (Homo sapiens); 500 µM in assay [3] (Mus musculus); 1000 µM in assay [4] (Mus musculus); 46 µM in assay [1] (Trypanosoma brucei); 160 µM in assay [7] (Homo sapiens). The “Substrate (% Control)” value in [5] is 102 % Control. The “Percent Control Activity” value in assay [6] (+50 mM PO4, 200 μM substrate) is listed as 57.5%; in [6] (No PO4, 200 μM substrate), 96.4%.
